Our source for the IC50 values is patent US5141934A, “Tetracyclic amines having pharmaceutical activity” (Warner-Lambert Company, priority 1990, dated 1992).

Broadly, the IC50 is the concentration at which inhibition is half-maximal.

This assay deals with phencyclidine (PCP) receptors (noncompetitive NMDA antagonist binding site). As to the kind of experiment: Tritiated 1[1-(2 thienyl)cyclohexyl]piperidine (TCP) binding, designated RBS1. To be noted: Table 1, read-out: RBSI IC50. The protocol:
The ability of the compounds of the instant invention to interact with phencyclidine (PCP) receptors which represents a noncompetitive NMDA antagonist binding site, is shown in Table 1. Tritiated 1[1-(2 thienyl)cyclohexyl]piperidine (TCP) binding, designated RBS1, was carried out essentially as described in J. Pharmacol. Exp. Ther., 238, 739 (1986).
For the molecule `c1ccc2c(c1)C[C@H]1CN[C@@]23CCCC[C@@H]13` (relative stereo) [Example 14, (+/-)-(4aα,10α,10aα) 1,3,4,9,10,10a Hexahydro-2H-4a,10-(iminomethano)phenanthrene], the IC50 turned out to be 86 nM.

As for `CN1C[C@@H]2Cc3ccccc3[C@]13CCCC[C@@H]23` (relative stereo) [Example 16, (+/-)-(4aα,10α,10aα) 1,3,4,9,10,10a-Hexahydro-12-methyl-2H 4a,10-(iminomethano)phenanthrene], the IC50 worked out at 137 nM.

For `CCCN1C[C@@H]2Cc3ccccc3[C@]13CCCC[C@@H]23` (relative stereo) [Example 19, (+/-)-(4aα,10α,10aα)-1,3,4,9,10,10a-Hexahydro-12-propyl-2H-4a,10-(iminomethano)phenanthrene], the IC50 is 54 nM.

Take `c1ccc2c(c1)C[C@H]1CN(CC3CC3)[C@@]23CCCC[C@@H]13` (relative stereo) [Example 20, (+/-)-(4aα,10α,10aα)-12-(Cyclopropylmethyl)-1,3,4,9,10,10a-hexahydro-2H-4a,10-(iminomethano)-phenanthrene]: the 50% inhibitory concentration (IC50) was found to be 51 nM.

Take `c1ccc(C2(N3CCCCC3)CCCCC2)cc1` [PCP, phencyclidine]: the 50% inhibitory concentration (IC50) worked out at 40 nM.

On to `c1csc(C2(N3CCCCC3)CCCCC2)c1` [TCP, 1[1-(2 thienyl)cyclohexyl]piperidine], for which the IC50 amounted to 9 nM.
